PMC7854685, “Histone Parylation factor 1 contributes to the inhibition of PARP1 by cancer drugs” (Nature Communications, 2021)
“And” between values parts separate entries of the source, which are not always exact repeats. Equal values may be shown once. “Also recorded” adds a separate entry of the source. Read-outs that look alike come from different tables or passages of the source. Marks after values point to notes of the source that are not given here. Blank lines part the entries; values can stand above or below the compound they belong to.

Key:
[1] = target: T1, PARP1 (Homo sapiens, UniProt P09874); assay: Release of fluorescently labeled p18mer DNA (fluorescence polarization) upon NAD+ addition, KI determination for PARPi, with or without HPF1; format: biochemical; set-up: Wild-type PARP1 and PARP2 were expressed and purified as previously described; made in house;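 note: PARP1 bound to fluorescein-tagged DNA and preincubated with inhibitor, then high NAD+ added, drop in fluorescence polarization tracked as the DNA dissociates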;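 for slope: slope of the inhibitor-concentration replot from which KI is derived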
T1 sequence (P09874 whole entry): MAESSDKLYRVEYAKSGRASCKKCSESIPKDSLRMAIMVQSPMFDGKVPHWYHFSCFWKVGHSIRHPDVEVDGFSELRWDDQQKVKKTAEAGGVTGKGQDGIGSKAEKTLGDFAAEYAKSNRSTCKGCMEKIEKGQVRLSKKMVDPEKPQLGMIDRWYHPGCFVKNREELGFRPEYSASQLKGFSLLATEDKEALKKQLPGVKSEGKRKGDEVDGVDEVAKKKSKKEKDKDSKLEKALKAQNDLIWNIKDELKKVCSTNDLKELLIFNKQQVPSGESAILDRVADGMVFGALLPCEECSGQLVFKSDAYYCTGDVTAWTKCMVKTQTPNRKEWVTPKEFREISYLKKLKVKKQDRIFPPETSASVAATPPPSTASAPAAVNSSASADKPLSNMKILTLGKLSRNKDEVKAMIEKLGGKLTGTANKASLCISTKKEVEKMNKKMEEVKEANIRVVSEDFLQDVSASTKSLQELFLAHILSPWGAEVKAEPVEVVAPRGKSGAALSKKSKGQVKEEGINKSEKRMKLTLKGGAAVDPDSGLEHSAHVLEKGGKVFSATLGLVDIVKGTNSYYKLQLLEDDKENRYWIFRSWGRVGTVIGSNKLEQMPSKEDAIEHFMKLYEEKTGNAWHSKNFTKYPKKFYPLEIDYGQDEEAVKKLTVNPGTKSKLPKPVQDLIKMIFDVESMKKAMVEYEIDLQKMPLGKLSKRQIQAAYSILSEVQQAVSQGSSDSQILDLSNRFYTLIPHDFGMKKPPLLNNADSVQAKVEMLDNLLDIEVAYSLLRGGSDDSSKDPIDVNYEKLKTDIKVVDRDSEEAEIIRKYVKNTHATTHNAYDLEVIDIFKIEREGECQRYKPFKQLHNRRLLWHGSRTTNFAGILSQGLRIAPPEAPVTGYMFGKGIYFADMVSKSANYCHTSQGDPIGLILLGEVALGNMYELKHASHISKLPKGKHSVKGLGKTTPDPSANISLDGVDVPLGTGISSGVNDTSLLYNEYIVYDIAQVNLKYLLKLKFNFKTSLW
Description: (§1) Starting with a complex of PARP1 or PARP2 bound to a PARPi and fluorescently labeled DNA, we monitor the loss of fluorescence polarization upon addition of high concentrations of NAD^+ (2 mM) as the labeled DNA is released from the PARylated PARPs (Fig. 1a).
(§2) Intuitively one might expect the observed rate of release of labeled DNA to reflect the slow dissociation of PARPi from the complex (koff; see Fig. 1a). However, the kinetics are actually more complex as there is competition between the inhibitor re-binding (kon[I]) and the binding of, and reaction with, NAD^+ (k2[NAD^+]) (Fig. 1a).
(§3) Next, 10 µL of PARP1 or PARP2 (10 nM) premixed with fluorescein labeled p18mer DNA (5 nM), was added to the various dilutions of PARPi and then incubated for 30 min to ensure complete association. Dissociation of labeled DNA was initiated by addition of 10 µL of NAD^+ (2 mM). […] We emphasize that the same correction is applied to the data for all PARPi. […] We can use the KI (derived from the slope of the replot, Fig. 2) and the minimal koff to calculate a minimal kon (KI = koff/kon, Supplementary Table 2).

[2] = target: T1, PARP1; conditions: cited from earlier work
[3] = target: T2, PARP2 (Homo sapiens, UniProt Q9UGN5); assay: Fluorescence polarization association/dissociation of fl-Ola, with p18mer or Nuc165, with or without HPF1; format: binding; set-up: On (individual replicates): unit not given here;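 note: fluorescence polarization read every minute over 1000 min, association and dissociation traces fitted to a single exponential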
T2 construct: Wild-type PARP1 and PARP2 were expressed and purified as previously described; made in house
T2 sequence (Q9UGN5 whole entry): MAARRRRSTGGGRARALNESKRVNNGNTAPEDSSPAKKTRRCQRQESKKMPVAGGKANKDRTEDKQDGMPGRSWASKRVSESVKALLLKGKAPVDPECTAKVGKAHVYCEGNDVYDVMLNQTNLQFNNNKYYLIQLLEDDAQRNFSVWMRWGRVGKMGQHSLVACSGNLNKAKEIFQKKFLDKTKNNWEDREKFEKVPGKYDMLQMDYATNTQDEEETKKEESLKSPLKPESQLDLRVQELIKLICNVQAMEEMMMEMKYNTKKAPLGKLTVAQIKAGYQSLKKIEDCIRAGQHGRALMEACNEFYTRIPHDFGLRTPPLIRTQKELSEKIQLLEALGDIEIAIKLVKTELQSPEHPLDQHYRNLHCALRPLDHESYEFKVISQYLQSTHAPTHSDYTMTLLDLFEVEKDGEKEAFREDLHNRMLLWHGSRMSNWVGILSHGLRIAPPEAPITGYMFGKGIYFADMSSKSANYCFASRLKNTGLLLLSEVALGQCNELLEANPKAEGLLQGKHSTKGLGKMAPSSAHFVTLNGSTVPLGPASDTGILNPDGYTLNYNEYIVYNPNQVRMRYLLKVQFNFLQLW

[4] = target: T1, PARP1; assay: as above; format: binding; set-up: Wild-type PARP1 and PARP2 were expressed and purified as previously described; made in house; on rate (observed, single run): unit not given here
[5] = target: T2, PARP2; assay: Release of fluorescently labeled p18mer DNA (fluorescence polarization) upon NAD+ addition, KI determination for PARPi, with or without HPF1; format: biochemical;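 for slope: slope of the inhibitor-concentration replot from which KI is derived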
Description: as §1, §2, §3

[6] = PARP1, +HPF1, single experiment
[7] = PARP1, without HPF1, single experiment
[8] = PARP2, +HPF1, single experiment
[9] = PARP2, without HPF1 (apo), single experiment

Compound: COC1CCN(C(=O)c2cc(Cc3n[nH]c(=O)c4ccccc34)ccc2F)CC1 [AZD]
- koff (est) average ([1]; PARP1, +HPF1, average): ≥ 0.00058 s⁻¹
- t1/2est average ([1]; PARP1, +HPF1, average): 20.75 min
- Ki ([1]; PARP1, +HPF1, average, read-out: Ki average): 780 pM
- slope [1, 6]: 49 s/nM and 51 s/nM and 67.1 s/nM and 43 s/nM
- t1/2est [1, 6]: 17 min and 20 min and 29 min
- Ki ([1]; PARP1, +HPF1, single experiment, read-out: Ki): 820 pM and 780 pM and 600 pM and 930 pM
- kon ratio ([1]; PARP1, ratio of averages with and without HPF1): 1.75
- Ki ratio ([1]; PARP1, ratio of averages without and with HPF1): 2.85
- koff (est) average ([1]; PARP1, without HPF1, average): ≥ 0.00295 s⁻¹
- t1/2est average ([1]; PARP1, without HPF1, average): 4.72 min
- Ki ([1]; PARP1, without HPF1, average, read-out: Ki average): 2230 pM
- slope [1, 7]: 9.4 s/nM and 16.4 s/nM and 15.8 s/nM and 16.1 s/nM and 10.2 s/nM and 11.0 s/nM
- Ki ([1]; PARP1, without HPF1, single experiment, read-out: Ki): 2960 pM and 1690 pM and 1760 pM and 1730 pM and 2720 pM and 2530 pM

Compound: C[C@]1(c2nc3c(C(N)=O)cccc3[nH]2)CCCN1 [Veliparib]
- PARP-trapping [2]: weak

- On average ([3]; PARP2, Nuc147): 5.7 per uM per sec
- On average ([3]; PARP2, Nuc147/HPF1): 2.3 per uM per sec
- Kd ([3]; PARP2, Nuc165): 18 ± 4.6 pM
- Kd ([3]; PARP2, Nuc165/HPF1): 24.9 ± 4.7 pM
- Kd ([3]; PARP2, p18mer): 14.1 ± 3.9 pM
- Off average ([3]; PARP2, p18mer): 0.44 per hr
- On (individual replicates) ([3]; PARP2, p18mer): 0.06673 and 0.08057 and 0.1117
- On average ([3]; PARP2, p18mer): 8.6 per uM per sec
- Kd ([3]; PARP2, p18mer/HPF1): 20.5 ± 4.8 pM
- On average ([3]; PARP2, p18mer/HPF1): 5.5 per uM per sec
- on rate average ([4]; PARP1, Nuc165): 2.17 per uM per sec
- on rate average ([4]; PARP1, Nuc165+HPF1): 4.35 per uM per sec
- on rate average ([4]; PARP1, buffer): 0.39 per uM per sec
- on rate average ([4]; PARP1, p18mer): 1.27 per uM per sec
- on rate average ([4]; PARP1, p18mer+HPF1): 1.95 per uM per sec
Compound: CC1=CC(C)=[N+]2C1=Cc1ccc(CCC(=O)N3CCN(C(=O)c4cc(Cc5n[nH]c(=O)c6ccccc56)ccc4F)CC3)n1[B-]2(F)F [fl-Ola]
- Off (individual replicates) ([3]; PARP2, Nuc147): 0.000128 per sec and 0.000098 per sec and 0.000096 per sec and 0.000087 per sec
- On (individual replicates) ([3]; PARP2, Nuc147): 0.06047 and 0.0458 and 0.0509 and 0.06962
- Off (individual replicates) ([3]; PARP2, Nuc147/HPF1): 0.000060 per sec and 0.000066 per sec and 0.000047 per sec
- On (individual replicates) ([3]; PARP2, Nuc147/HPF1): 0.02342 and 0.02572 and 0.02231 and 0.02096
- Off (individual replicates) ([3]; PARP2, p18mer): 0.000127 per sec and 0.000133 per sec and 0.000111 per sec and 0.000117 per sec
- Off (individual replicates) ([3]; PARP2, p18mer/HPF1): 0.000135 per sec and 0.000112 per sec and 0.000093 per sec
- On (individual replicates) ([3]; PARP2, p18mer/HPF1): 0.06627 and 0.04795 and 0.05623 and 0.05079
- off rate (single run) ([4]; PARP1, Nuc165): 0.004215 per min and 0.004911 per min and 0.004071 per min and 0.00473 per min and 0.004639 per min
- off rate (single run) ([4]; PARP1, Nuc165+HPF1): 0.001434 per min and 0.001853 per min and 0.001613 per min and 0.002575 per min and 0.002863 per min
- on rate (observed, single run) ([4]; PARP1, Nuc165+HPF1): 0.03904 and 0.05638 and 0.0311 and 0.04561 and 0.04092 and 0.03175 and 0.05953
- off rate (single run) ([4]; PARP1, buffer): 0.001297 per min and 0.001272 per min and 0.001404 per min and 0.001129 per min
- on rate (observed, single run) ([4]; PARP1, buffer): 0.002763 and 0.003297 and 0.003517 and 0.004488 and 0.003954 and 0.005011 and 0.004368 and 0.00415
- off rate (single run) ([4]; PARP1, p18mer): 0.005934 per min and 0.004771 per min and 0.005583 per min and 0.004919 per min and 0.005548 per min
- off rate (single run) ([4]; PARP1, p18mer+HPF1): 0.002334 per min and 0.002172 per min and 0.002936 per min and 0.003134 per min and 0.003344 per min
- on rate (observed, single run) ([4]; PARP1, p18mer+HPF1): 0.02205 and 0.01731 and 0.01849 and 0.01852 and 0.01515 and 0.01847 and 0.02629

Compound: Cn1ncnc1[C@H]1c2n[nH]c(=O)c3cc(F)cc(c23)N[C@@H]1c1ccc(F)cc1 [Tala]
- t1/2est average ([1]; PARP1, +HPF1, average): >333.33 min
- t1/2est [1, 6]: 333.33 min
- t1/2est average ([1]; PARP1, without HPF1, average): 121.7 min
- slope [1, 7]: 1743 s/nM and 2697 s/nM and 2953 s/nM and 2451 s/nM
- t1/2est [1, 7]: 138.5 min and 95.83 min and 118.5 min and 134 min
- t1/2est average ([5]; PARP2, +HPF1, average): 9.17 min
- slope [5, 8]: 91 s/nM and 65 s/nM
- t1/2est [5, 8]: 11 min and 10 min and 6.5 min
- slope [5, 9]: 180 s/nM and 131 s/nM and 191 s/nM
- t1/2est [5, 9]: 7.5 min and 6.5 min
- t1/2est average ([5]; PARP2, without HPF1, average): 6.83 min

Compound: NC(=O)c1ccc(I)c([N+](=O)[O-])c1 [iniparib]
- Inhibition of DNA release from PARP1 ([1]; PARP1, 20-2500 nM): not an inhibitor of PARP1; also recorded: does not have this effect

- t1/2est average [5]: 4.05 min and 4.08 min
Compound: O=C(c1cc(Cc2n[nH]c(=O)c3ccccc23)ccc1F)N1CCN(C(=O)C2CC2)CC1 [Olaparib]
- t1/2est [5]: 4.17 min and 4.5 min and 3 min and 5.5 min and 4 min and 2.83 min

- t1/2est average ([1]; PARP1, +HPF1, average): 38.5 min
- slope [1, 6]: 149 s/nM and 124 s/nM and 110 s/nM
- t1/2est [1, 6]: 39 min and 37.5 min
- t1/2est average ([1]; PARP1, without HPF1, average): 4.58 min
- t1/2est [1, 7]: 4.75 min and 4.5 min
Compound: NC(=O)c1cccc2[nH]c(-c3ccc([C@@H]4CCCN4)cc3F)nc12 [A-966492]
- slope [1, 7]: 34.7 s/nM and 49.9 s/nM and 38.6 s/nM

- t1/2est average ([1]; PARP1, +HPF1, average): 250 min
- t1/2est [1, 6]: 250 min
- t1/2est average ([1]; PARP1, without HPF1, average): 57.5 min
Compound: CNCc1ccc(-c2[nH]c3cc(F)cc4c3c2CCNC4=O)cc1 [Rucaparib]
- PARP-trapping [2]: strong

- t1/2est average ([1]; PARP1, +HPF1, average): 28.33 min
- t1/2est [1, 6]: 29 min and 28 min
- t1/2est average ([1]; PARP1, without HPF1, average): 8.7 min
- t1/2est [1, 7]: 5.5 min and 11 min and 9.5 min and 8 min
Compound: NC(=O)c1cccc2cn(-c3ccc([C@@H]4CCCNC4)cc3)nc12 [Nira]
- slope [1, 6]: 60.3 s/nM and 61 s/nM and 66.7 s/nM

Compound: COC1CCN(C(=O)c2cc(Cc3n[nH]c(=O)c4ccccc34)ccc2F)CC1 [AZD-2461]
- Fold (t-test) ([1]; PARP1, fold-difference in Ki caused by the addition of HPF1): 2.9 ** fold
- Ki ([1]; PARP1 alone, p18mer DNA, 2 mM NAD+, read-out: Ki): 2200 ± 600 pM
